Experiments:
Per2::Luc U2OS cells = assay: Per2::Luc cell based circadian assay; conditions: Per2::Luc U2OS cells, dose response
Method: U2OS cells stably transfected with a Per2::Luc reporter were cultured in DMEM supplemented with 10% FBS. For siRNA- and drug-based experiments, cells were seeded at 5,000 per well into white 384 well plates and transfected with 20 nM siRNA the next day. 2 days later, the cells were synchronized with 100 nM dexamethasone and the medium was replaced with phenol-red free DMEM supplemented with B-27 and 100 µM luciferin potassium salt, requisite drugs formulated in DMSO as a 1000× stock was added, and then sealed. Per2::Luc rhythms were recorded from a BMG Labtech Fluostar Omega plate reader maintained at 36° C. and readings taken from each well every hour. Data were then analysed using either Multicycle or Brass rhythm analysis software.
Period2::Luciferase (Per2::Luc) stable U2OS transfects were cultured, as described above. A Greiner Bio-One 384 Well Plate (Polystyrene, F-bottom), was then seeded at 6000 cells per 50 μl well. Following a 24 hour period, the cells were treated with 0.1% dexamethasone, a glucocorticoid hormone analogue known to reset intracellular circadian rhythms, for 1 hour. Subsequently, the dexamethasone-containing medium was removed, the cells were washed with PBS and luciferin and test drug containing medium was added. The cells were then assayed for luminescence over a period of 96 hours in the BMG FLUOstar OPTIMA Microplate Reader to observe the periodicity and amplitude of the luminescence values.

[1] = system: intracellular levels of cAMP; assay: cAMP GloSensor assay in U2OS cells; format: cell-based
Method: The GloSensor™ cAMP Assay (Promega) was used for detecting changes in the intracellular levels of cAMP. Initially, a Greiner Bio-One 96 Well Plate (white, TC treated) was seeded at 8000 cells per 100 μl well, as described above. After 24 hours, the cells were transfected with the pGloSensor™ cAMP Plasmid using the Viafect transfection reagent as above. Between 24 and 48 hours later, allowing for the accumulation of the biosensor, the medium in the 96 well plate was changed to C02-Independent Medium supplemented with GlutaMAX™ (Life Technologies), 10% fetal bovine serum and 2% GloSensor™ cAMP Reagent. The plate was then stood for 2 hours at room temperature to equilibrate. Following the incubation period, the cells were treated with relevant drugs and their luminescence values were measured after 20 minutes in the BMG FLUOstar OPTIMA Microplate Reader, with forskolin as a positive control, and DMSO as a negative control.

CREB = CREB phosphorylation in U2OS cells; format: cell-based
[2] = system: STAR-PROM plasmid library; assay: STAR-PROM transcription factor screening in U2OS cells; format: cell-based
Method: This was conducted as previously reported in Gerber et al., Cell. […] Briefly, U2OS cells were cultured in 6-well plates and transfected with 1 ug of the STAR-PROM plasmid library (library structure as in above reference). RNA was extracted at set time points and sequenced for the barcoded luciferase constructs and analysed with Galaxy (https://use.galaxy.org).

Fos = Fos mRNA after drug treatment; format: cell-based; conditions: 10 uM
Method: Total RNA was extracted using the microRNeasy column method (Qiagen, Hilden, Germany). Quality and quantity of RNA were measured using an Agilent Bioanalyzer and a Nanodrop1000 (Thermo Fisher Scientific, Waltham, MA USA), respectively.
RNA samples were prepared as described for microarray hybridisation. cDNA was synthesized with a qScript cDNA synthesis kit (Quanta Biosciences, Gaithersburg, MD), and quantitative PCR (qPCR) was conducted with Sybr green I and an SDS7700 thermal cycler (Applied Biosystems, Foster City, CA). Relative quantification of transcript levels was done as described previously (Peirson et al., Nucleic Acids Res. 2003 Jul. 15; 31(14):e73.). The geometric mean of a minimum of three housekeeping genes was used for normalization (Gapdh, ActB, GusB and Rps9 for example).

C57Bl/6 mice = assay: Phase shifting of circadian activity in response to a light pulse with drug; format: in vivo; conditions: light at CT16
Method: Animals were maintained in a 12 h light (white) 12 h dark (grey) cycle and vehicle was administered just before a 30 min 400 lux light pulse (white bar) at time CT 22 (or 10 hours after lights off). All light cues were then removed to allow the animals free running clock to express. A gap in the lines on the day after the light pulse was administered indicates a phase shift.
Animals were maintained in a 12 h light (white) 12 h dark (grey) cycle and IB-MECA (1 mg/kg) was administered just before a 30 min 400 lux light pulse (white bar) at time CT 22 (or 10 hours after lights off).
Animals were housed under a reversed 12:12 LD cycle (400 lux from white LED lamps) with food and water ad libitum. For phase-shifting studies, C57Bl/6 mice were maintained on running wheels in light tight chambers on a 12:12 LD cycle (400 lux from white LED lamps) and injected with drug at the indicated time points. The drugs were formulated in a vehicle consisting of 5% Koliphor-HS15 (Sigma-Aldrich, UK) 5% Cyclodextran (Sigma-Aldrich, UK) in 0.9% saline. […] Where measuring phase-shifting, the mice were then placed in DD and allowed to free run for 14 days in DD, running wheel activity data was collected and analysed on Clocklab (Actimetrics, Wilmette, IL). […]

## Nc1nc(-c2ccccc2)c2c(n1)-c1cc(OCCN3CCOCC3)ccc1C2=O [JNJ40255293, 2-amino-8-[2-(4-morpholinyl)ethoxy]-4-phenyl-5H-indeno[1,2-d]pyrimidin-5-one]
Per2::Luc U2OS cells
  circadian period length: increased circadian period length in a dose dependent manner
[1]
  cAMP levels: does not elevate cAMP levels
[1]; 30 uM
  increase in cAMP: 50%
CREB
  CREB phosphorylation: no changes in CREB phosphorylation
[2]; BC-STARPROM, 30 uM
  clones with significantly increased reporter signal: 8 clones
[2]; isolated clone3
  response of clone3 reporter: responded
Fos
  Fos mRNA: Upregulation
C57Bl/6 mice
  phase-shifts in response to light: enhances phase-shifts in response to light at CT16
